Data published in ChEMBL document CHEMBL1201862, “PubChem BioAssay data set” (2004).
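96-well plates; 48 h exposure; 5 concentrations. Endpoints by linear interpolation between flanking doses. Not reached: highest tested concentration assigned. Here, GI50 denotes the concentration required for 50% inhibition of growth.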 Activity calls are given as the source filed them. Cut-off read from the data, not from the text of the source: active = GI50 up to about 1.1 µM and inactive = higher.

What was measured:
Test in all cases: DTP human tumour cell line panel, 48 h
786-0 = test system: 786-0
A498 = test system: A498
A549 = test system: A549
ACHN = test system: ACHN
BT-549 = test system: BT-549
CAKI-1 = test system: CAKI-1
CCRF-CEM = test system: CCRF-CEM
COLO 205 = test system: COLO 205
DLD-1 = test system: DLD-1
DMS-114 = test system: DMS-114
DMS-273 = test system: DMS-273
DU-145 = test system: DU-145
EKVX = test system: EKVX
HCC 2998 = test system: HCC 2998
HCT-116 = test system: HCT-116
HCT-15 = test system: HCT-15
HL-60 = test system: HL-60
HOP-18 = test system: HOP-18
HOP-62 = test system: HOP-62
HOP-92 = test system: HOP-92
HT-29 = test system: HT-29
Hs-578T = test system: Hs-578T
IGROV-1 = test system: IGROV-1
K562 = test system: K562
KM-20L2 = test system: KM-20L2
KM12 = test system: KM12
LOX IMVI = test system: LOX IMVI
LXFL 529 = test system: LXFL 529
M14 = test system: M14
M19-MEL = test system: M19-MEL
MCF7 = test system: MCF7
MDA-MB-231 = test system: MDA-MB-231
MDA-MB-435 = test system: MDA-MB-435
MDA-N = test system: MDA-N
MOLT-4 = test system: MOLT-4
Malme-3M = test system: Malme-3M
NCI-H226 = test system: NCI-H226
NCI-H23 = test system: NCI-H23
NCI-H460 = test system: NCI-H460
NCI-H522 = test system: NCI-H522
NCI/ADR-RES = test system: NCI/ADR-RES
OVCAR-3 = test system: OVCAR-3
OVCAR-4 = test system: OVCAR-4
OVCAR-5 = test system: OVCAR-5
OVCAR-8 = test system: OVCAR-8
PC-3 = test system: PC-3
RPMI-8226 = test system: RPMI-8226
RXF 393 = test system: RXF 393
RXF 631 = test system: RXF 631
SF-268 = test system: SF-268
SF-295 = test system: SF-295
SF-539 = test system: SF-539
SK-MEL-28 = test system: SK-MEL-28
SK-MEL-2 = test system: SK-MEL-2
SK-MEL-5 = test system: SK-MEL-5
SK-OV-3 = test system: SK-OV-3
SN12C = test system: SN12C
SNB-19 = test system: SNB-19
SNB-75 = test system: SNB-75
SNB-78 = test system: SNB-78
SR = test system: SR
SW-620 = test system: SW-620
T47D = test system: T47D
TK-10 = test system: TK-10
U-251 = test system: U-251
UACC-257 = test system: UACC-257
UACC-62 = test system: UACC-62
UO-31 = test system: UO-31
XF498 = test system: XF498

Cc1ccc(NC(=O)CCc2nnc3s/c(=C\C=C\c4ccccc4)c(=O)n23)cc1
GI50 (786-0): > 100 µM (inactive) | GI50 (A498): > 94.4 µM (inactive) | GI50 (A549): > 100 µM (inactive) | GI50 (ACHN): > 100 µM (inactive) | GI50 (BT-549): > 63.8 µM (inactive) | GI50 (CAKI-1): > 100 µM (inactive) | GI50 (CCRF-CEM): 27.8 µM (inactive) | GI50 (COLO 205): > 100 µM (inactive) | GI50 (DLD-1): > 100 µM (inactive) | GI50 (DMS-114): > 100 µM (inactive) | GI50 (DMS-273): > 100 µM (inactive) | GI50 (DU-145): > 100 µM (inactive) | GI50 (EKVX): > 100 µM (inactive) | GI50 (HCC 2998): > 100 µM (inactive) | GI50 (HCT-116): > 100 µM (inactive) | GI50 (HCT-15): > 100 µM | GI50 (HL-60): 56 µM (inactive) | GI50 (HOP-18): 90.2 µM (inactive) | GI50 (HOP-62): > 95.5 µM (inactive) | GI50 (HOP-92): > 83 µM (inactive) | GI50 (HT-29): > 100 µM (inactive) | GI50 (Hs-578T): > 78 µM (inactive) | GI50 (IGROV-1): > 100 µM (inactive) | GI50 (K562): > 100 µM (inactive) | GI50 (KM-20L2): > 100 µM (inactive) | GI50 (KM12): 61.8 µM (inactive) | GI50 (LOX IMVI): 27 µM (inactive) | GI50 (LXFL 529): 60.7 µM (inactive) | GI50 (M14): > 100 µM (inactive) | GI50 (M19-MEL): 67.5 µM (inactive) | GI50 (MCF7): > 71.4 µM (inactive) | GI50 (MDA-MB-231): > 100 µM (inactive) | GI50 (MDA-MB-435): > 86.5 µM (inactive) | GI50 (MDA-N): > 79.1 µM (inactive) | GI50 (MOLT-4): 30 µM (inactive) | GI50 (Malme-3M): > 100 µM (inactive) | GI50 (NCI-H226): > 100 µM (inactive) | GI50 (NCI-H23): > 100 µM (inactive) | GI50 (NCI-H460): > 83.6 µM (inactive) | GI50 (NCI-H522): 37.8 µM (inactive) | GI50 (NCI/ADR-RES): 26.5 µM (inactive) | GI50 (OVCAR-3): 44.9 µM (inactive) | GI50 (OVCAR-4): > 56.2 µM (inactive) | GI50 (OVCAR-5): > 100 µM (inactive) | GI50 (OVCAR-8): 31.3 µM (inactive) | GI50 (PC-3): > 100 µM (inactive) | GI50 (RPMI-8226): 46.9 µM (inactive) | GI50 (RXF 393): > 81.8 µM (inactive) | GI50 (RXF 631): > 82.4 µM (inactive) | GI50 (SF-268): 59.3 µM (inactive) | GI50 (SF-295): > 100 µM (inactive) | GI50 (SF-539): 55.3 µM (inactive) | GI50 (SK-MEL-28): > 100 µM (inactive) | GI50 (SK-MEL-2): 68.7 µM (inactive) | GI50 (SK-MEL-5): > 95.5 µM (inactive) | GI50 (SK-OV-3): > 100 µM (inactive) | GI50 (SN12C): > 100 µM (inactive) | GI50 (SNB-19): > 79.6 µM (inactive) | GI50 (SNB-75): > 83.2 µM (inactive) | GI50 (SNB-78): > 71 µM (inactive) | GI50 (SR): 7.29 µM (inactive) | GI50 (SW-620): > 100 µM (inactive) | GI50 (T47D): > 31.6 µM (inactive) | GI50 (TK-10): > 100 µM (inactive) | GI50 (U-251): 53.3 µM (inactive) | GI50 (UACC-257): > 95.7 µM (inactive) | GI50 (UACC-62): 80.4 µM (inactive) | GI50 (UO-31): > 100 µM (inactive) | GI50 (XF498): > 100 µM (inactive)
